Consider 25 compounds from patent US20230286970A1, “NOVEL OXADIAZOLE-BASED SELECTIVE HDAC6 INHIBITORS” (ITALFARMACO S.P.A., priority 2020, published 2023).

The target in one assay is recombinant human HDAC6 (Homo sapiens (Human), UniProt Q9UBN7). Description: Enzymatic screening, HDAC6 inhibition (fluorogenic FdL_G substrate). Format: biochemical. In a few lines:
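Enzyme was preincubated with compound (8 doses, triplicate, 1% DMSO) in 25 mM Tris-HCl pH 8, 130 mM NaCl, 0.05% Tween-20, 10% glycerol, with BSA. A FLUOR DE LYS-Green substrate was then added, and fluorescence was read after developer plus 2 μM TSA.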

Another assay concerns the target recombinant human HDAC1 (Homo sapiens (Human), UniProt Q13547). As to the kind of experiment: Enzymatic screening, HDAC1 inhibition (fluorogenic FdL_G substrate). The format is biochemical. In a few lines: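 Recombinant human HDAC1 inhibition was measured fluorometrically using the FLUOR DE LYS-Green (FdL_G) substrate. Compounds at 8 doses (1% DMSO final) in Tris-HCl pH 8 buffer with NaCl, Tween-20 and glycerol were preincubated in triplicate with enzyme and 1 mg/mL BSA, then given substrate. Developer I plus 2 μM TSA was added, and fluorescence read after 25 minutes in the dark.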

Sequence of recombinant human HDAC6 (Q9UBN7 whole entry): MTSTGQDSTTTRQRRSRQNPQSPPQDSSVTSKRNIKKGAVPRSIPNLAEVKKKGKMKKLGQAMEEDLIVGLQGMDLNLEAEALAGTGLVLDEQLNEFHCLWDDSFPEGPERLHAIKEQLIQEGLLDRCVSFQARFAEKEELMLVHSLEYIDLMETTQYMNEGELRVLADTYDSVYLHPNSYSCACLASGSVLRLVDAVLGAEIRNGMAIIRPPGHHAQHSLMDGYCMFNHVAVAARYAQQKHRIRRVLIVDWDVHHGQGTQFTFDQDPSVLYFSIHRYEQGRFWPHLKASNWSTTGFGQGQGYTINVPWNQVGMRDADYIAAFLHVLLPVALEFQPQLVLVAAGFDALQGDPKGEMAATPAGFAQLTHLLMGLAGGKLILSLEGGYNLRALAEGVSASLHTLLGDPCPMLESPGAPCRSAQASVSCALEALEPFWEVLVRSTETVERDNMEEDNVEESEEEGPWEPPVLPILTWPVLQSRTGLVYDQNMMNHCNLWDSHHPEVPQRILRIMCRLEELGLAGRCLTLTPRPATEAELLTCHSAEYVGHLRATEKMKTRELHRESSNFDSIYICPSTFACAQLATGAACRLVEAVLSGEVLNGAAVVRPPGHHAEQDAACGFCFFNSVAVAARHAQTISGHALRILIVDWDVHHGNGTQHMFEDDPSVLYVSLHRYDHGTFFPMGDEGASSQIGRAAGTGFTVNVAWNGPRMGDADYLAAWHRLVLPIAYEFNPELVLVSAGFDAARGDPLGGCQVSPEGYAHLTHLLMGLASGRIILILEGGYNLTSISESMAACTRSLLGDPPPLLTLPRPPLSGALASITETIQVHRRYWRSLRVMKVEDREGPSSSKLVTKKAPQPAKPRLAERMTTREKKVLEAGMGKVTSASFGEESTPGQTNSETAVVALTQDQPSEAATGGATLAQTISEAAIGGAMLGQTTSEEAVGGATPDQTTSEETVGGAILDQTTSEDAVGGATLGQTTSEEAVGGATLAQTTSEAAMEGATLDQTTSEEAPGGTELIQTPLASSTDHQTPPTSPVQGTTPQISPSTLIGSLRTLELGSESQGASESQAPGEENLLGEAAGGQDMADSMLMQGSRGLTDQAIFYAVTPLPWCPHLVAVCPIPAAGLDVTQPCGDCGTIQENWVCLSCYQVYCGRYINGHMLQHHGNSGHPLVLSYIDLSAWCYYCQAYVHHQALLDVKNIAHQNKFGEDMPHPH
Sequence of recombinant human HDAC1 (Q13547 whole entry): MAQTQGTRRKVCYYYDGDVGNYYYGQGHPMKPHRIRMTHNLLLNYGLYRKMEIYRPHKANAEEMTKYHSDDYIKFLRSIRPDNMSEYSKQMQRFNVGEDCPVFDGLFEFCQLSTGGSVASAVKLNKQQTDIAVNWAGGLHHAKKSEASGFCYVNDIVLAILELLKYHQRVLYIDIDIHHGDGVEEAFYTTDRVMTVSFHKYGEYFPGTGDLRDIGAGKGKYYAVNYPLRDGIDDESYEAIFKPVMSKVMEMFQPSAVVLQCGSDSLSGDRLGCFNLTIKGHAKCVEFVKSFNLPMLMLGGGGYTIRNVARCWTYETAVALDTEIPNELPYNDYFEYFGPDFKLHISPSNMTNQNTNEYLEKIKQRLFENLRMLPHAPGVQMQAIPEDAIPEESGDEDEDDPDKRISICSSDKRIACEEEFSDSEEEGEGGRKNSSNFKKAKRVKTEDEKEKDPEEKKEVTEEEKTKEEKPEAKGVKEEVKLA

Turning to `Fc1cc(-c2nnc(C(F)F)o2)cnc1Cn1nnc(-c2cccc(-c3nc4c([nH]3)CCNC4)c2)n1` [compound 353, 2-(difluoromethyl)-5-[5-fluoro-6-[[5-[3-(4,5,6,7-tetrahydro-1H-imidazo[4,5-c]pyridin-2-yl)phenyl]tetrazol-2-yl]methyl]pyridin-3-yl]-1,3,4-oxadiazole], the IC50 at recombinant human HDAC6 was 42 nM; at recombinant human HDAC1, > 1e+06 nM.

With `Fc1cc(-c2nnc(C(F)F)o2)ccc1Cn1nnc(-c2cccc(-c3nc4c([nH]3)CCNC4)c2)n1` [compound 354, 2-(difluoromethyl)-5-[3-fluoro-4-[[5-[3-(4,5,6,7-tetrahydro-1H-imidazo[4,5-c]pyridin-2-yl)phenyl]tetrazol-2-yl]methyl]phenyl]-1,3,4-oxadiazole], the values for the IC50 at recombinant human HDAC6 and on recombinant human HDAC1 were 25 nM and 183000 nM, respectively.

For `Fc1c(Cn2nnc(-c3cccc(-c4nc5c([nH]4)CCNC5)c3)n2)ccc(-c2nnc(C(F)F)o2)c1F` [compound 355, 2-(difluoromethyl)-5-[2,3-difluoro-4-[[5-[3-(4,5,6,7-tetrahydro-1H-imidazo[4,5-c]pyridin-2-yl)phenyl]tetrazol-2-yl]methyl]phenyl]-1,3,4-oxadiazole], the IC50 at recombinant human HDAC6 is 62 nM; on recombinant human HDAC1 it was > 1e+06 nM.

In the case of `[2H]C([2H])(c1ccc(-c2nnc(C(F)F)o2)cc1)n1cc(-c2ccc(N)nc2)nn1` [compound 356, 5-[1-[dideuterio-[4-[5-(difluoromethyl)-1,3,4-oxadiazol-2-yl]phenyl]methyl]triazol-4-yl]pyridin-2-amine], the IC50 on recombinant human HDAC6 is 43 nM; on recombinant human HDAC1 it was > 1e+06 nM.

With `Fc1cc(-c2nnc(C(F)F)o2)ccc1Cn1cnc(-c2ccc(NC3=NCCN3)cc2)c1` [compound 357, N-[4-[1-[[4-[5-(difluoromethyl)-1,3,4-oxadiazol-2-yl]-2-fluorophenyl]methyl]imidazol-4-yl]phenyl]-4,5-dihydro-1H-imidazol-2-amine], the IC50 at recombinant human HDAC6 was 12 nM; on recombinant human HDAC1, > 1e+06 nM.

In the case of `FC(F)c1nnc(-c2ccc(Cn3cnc(-c4ccc(NC5=NCCN5)cc4)c3)c(Cl)c2)o1` [compound 358, N-[4-[1-[[2-chloro-4-[5-(difluoromethyl)-1,3,4-oxadiazol-2-yl]phenyl]methyl]imidazol-4-yl]phenyl]-4,5-dihydro-1H-imidazol-2-amine], the IC50 is 52 nM at recombinant human HDAC6 and 124000 nM at recombinant human HDAC1.

As to `Fc1c(Cn2cnc(-c3ccc(NC4=NCCN4)cc3)c2)ccc(-c2nnc(C(F)F)o2)c1F` [compound 359, N-[4-[1-[[4-[5-(difluoromethyl)-1,3,4-oxadiazol-2-yl]-2,3-difluorophenyl]methyl]imidazol-4-yl]phenyl]-4,5-dihydro-1H-imidazol-2-amine], the IC50 at recombinant human HDAC6 is 11 nM; at recombinant human HDAC1, > 1e+06 nM.

Turning to `Fc1cc(Cn2cnc(-c3ccc(NC4=NCCN4)cc3)c2)ccc1-c1nnc(C(F)F)o1` [compound 360, N-[4-[1-[[4-[5-(difluoromethyl)-1,3,4-oxadiazol-2-yl]-3-fluorophenyl]methyl]imidazol-4-yl]phenyl]-4,5-dihydro-1H-imidazol-2-amine], the IC50 was 18 nM on recombinant human HDAC6 and > 1e+06 nM at recombinant human HDAC1.

Regarding `Fc1cc(-c2nnc(C(F)F)o2)c(F)cc1Cn1cnc(-c2ccc(NC3=NCCN3)cc2)c1` [compound 361, N-[4-[1-[[4-[5-(difluoromethyl)-1,3,4-oxadiazol-2-yl]-2,5-difluorophenyl]methyl]imidazol-4-yl]phenyl]-4,5-dihydro-1H-imidazol-2-amine], the values for the IC50 on recombinant human HDAC6 and at recombinant human HDAC1 were 9 nM and > 1e+06 nM, respectively.

For the compound `[2H]C([2H])(c1ccc(-c2nnc(C(F)F)o2)cn1)n1cc(-c2ccc(N)nc2)nn1` [compound 362, 5-[1-[dideuterio-[5-[5-(difluoromethyl)-1,3,4-oxadiazol-2-yl]pyridin-2-yl]methyl]triazol-4-yl]pyridin-2-amine], the IC50 on recombinant human HDAC6 was 18 nM; on recombinant human HDAC1, > 1e+06 nM.

With `O=C(Nc1cccc(-c2cn(Cc3cc(F)c(-c4nnc(C(F)F)o4)cc3F)nn2)c1)N1CCOCC1` [compound 363, N-[3-[1-[[4-[5-(difluoromethyl)-1,3,4-oxadiazol-2-yl]-2,5-difluorophenyl]methyl]triazol-4-yl]phenyl]morpholine-4-carboxamide], the IC50 at recombinant human HDAC6 was 29 nM; at recombinant human HDAC1, > 1e+06 nM.

For the compound `Fc1cc(Cn2nnc(-c3cccc(-c4nc5c([nH]4)CNCC5)c3)n2)ccc1-c1nnc(C(F)F)o1` [compound 364, 2-(difluoromethyl)-5-[2-fluoro-4-[[5-[3-(4,5,6,7-tetrahydro-3H-imidazo[4,5-c]pyridin-2-yl)phenyl]tetrazol-2-yl]methyl]phenyl]-1,3,4-oxadiazole], the IC50 on recombinant human HDAC6 turned out to be 37 nM; at recombinant human HDAC1, 570000 nM.

`FC(F)c1nnc(-c2ccc(Cn3nnc(-c4cccc(-c5nc6c([nH]5)CNCC6)c4)n3)c(Cl)c2)o1` [compound 365, 2-[3-chloro-4-[[5-[3-(4,5,6,7-tetrahydro-3H-imidazo[4,5-c]pyridin-2-yl)phenyl]tetrazol-2-yl]methyl]phenyl]-5-(difluoromethyl)-1,3,4-oxadiazole]: the concentration for half-maximal inhibition (IC50) on recombinant human HDAC6 is 106 nM; at recombinant human HDAC1 it was > 1e+06 nM.

For `Fc1cc(-c2nnc(C(F)F)o2)c(F)cc1Cn1nnc(-c2cccc(-c3nc4c([nH]3)CCNC4)c2)n1` [compound 367, 2-(difluoromethyl)-5-[2,5-difluoro-4-[[5-[3-(4,5,6,7-tetrahydro-1H-imidazo[4,5-c]pyridin-2-yl)phenyl]tetrazol-2-yl]methyl]phenyl]-1,3,4-oxadiazole], the IC50 at recombinant human HDAC6 was 26 nM; at recombinant human HDAC1 it was 168000 nM.

With `[2H]C([2H])(c1ccc(-c2nnc(C(F)F)o2)cc1)n1cnc(-c2ccc(NC3=NCCN3)cc2)c1` [compound 368, N-[4-[1-[dideuterio-[4-[5-(difluoromethyl)-1,3,4-oxadiazol-2-yl]phenyl]methyl]imidazol-4-yl]phenyl]-4,5-dihydro-1H-imidazol-2-amine], the results for the half-inhibitory concentration (IC50) on recombinant human HDAC6 and at recombinant human HDAC1 were 17 nM and > 1e+06 nM, respectively.

In the case of `[2H]C([2H])(c1ccc(-c2nnc(C(F)F)o2)cn1)n1cc(-c2cccc(NC(=O)N3CCOCC3)c2)nn1` [compound 369, N-[3-[1-[dideuterio-[5-[5-(difluoromethyl)-1,3,4-oxadiazol-2-yl]pyridin-2-yl]methyl]triazol-4-yl]phenyl]morpholine-4-carboxamide], the IC50 on recombinant human HDAC6 is 17 nM; on recombinant human HDAC1, > 1e+06 nM.

Regarding `Cn1c(N)nc2cc(-c3nnn(Cc4ncc(-c5nnc(C(F)F)o5)cc4F)n3)ccc21` [compound 370, 5-[2-[[5-[5-(difluoromethyl)-1,3,4-oxadiazol-2-yl]-3-fluoropyridin-2-yl]methyl]tetrazol-5-yl]-1-methylbenzimidazol-2-amine], the values for the half-inhibitory concentration (IC50) on recombinant human HDAC6 and at recombinant human HDAC1 were 23 nM and > 1e+06 nM, respectively.

As for `Cn1c(N)nc2cc(-c3nnn(Cc4ccc(-c5nnc(C(F)F)o5)c(F)c4F)n3)ccc21` [compound 371, 5-[2-[[4-[5-(difluoromethyl)-1,3,4-oxadiazol-2-yl]-2,3-difluorophenyl]methyl]tetrazol-5-yl]-1-methylbenzimidazol-2-amine], the values for the IC50 at recombinant human HDAC6 and on recombinant human HDAC1 were 25 nM and > 1e+06 nM, respectively.

As to `Cn1c(N)nc2cc(-c3nnn(Cc4cc(F)c(-c5nnc(C(F)F)o5)cc4F)n3)ccc21` [compound 372, 5-[2-[[4-[5-(difluoromethyl)-1,3,4-oxadiazol-2-yl]-2,5-difluorophenyl]methyl]tetrazol-5-yl]-1-methylbenzimidazol-2-amine], the IC50 at recombinant human HDAC6 is 19 nM; on recombinant human HDAC1, > 1e+06 nM.

For the compound `Cn1c(N)nc2cc(-c3nnn(Cc4ccc(-c5nnc(C(F)F)o5)c(F)c4)n3)ccc21` [compound 373, 5-[2-[[4-[5-(difluoromethyl)-1,3,4-oxadiazol-2-yl]-3-fluorophenyl]methyl]tetrazol-5-yl]-1-methylbenzimidazol-2-amine], the half-inhibitory concentration (IC50) at recombinant human HDAC6 was 26 nM; on recombinant human HDAC1, > 1e+06 nM.

Regarding `Cn1c(N)nc2cc(-c3nnn(Cc4ccc(-c5nnc(C(F)F)o5)cc4Cl)n3)ccc21` [compound 374, 5-[2-[[2-chloro-4-[5-(difluoromethyl)-1,3,4-oxadiazol-2-yl]phenyl]methyl]tetrazol-5-yl]-1-methylbenzimidazol-2-amine], the IC50 is 101 nM on recombinant human HDAC6 and > 1e+06 nM on recombinant human HDAC1.

On to `Nc1ccc(-c2noc(Cc3ccc(-c4nnc(C(F)F)o4)cc3)n2)cc1` [compound 375, 4-[5-[[4-[5-(difluoromethyl)-1,3,4-oxadiazol-2-yl]phenyl]methyl]-1,2,4-oxadiazol-3-yl]aniline], for which the IC50 at recombinant human HDAC6 is 88 nM; at recombinant human HDAC1, > 1e+06 nM.

As for `[2H]C([2H])(c1ccc(-c2nnc(C(F)F)o2)cn1)n1cc(-c2ccc3nc(N)sc3c2)nn1` [compound 376, 6-[1-[dideuterio-[5-[5-(difluoromethyl)-1,3,4-oxadiazol-2-yl]pyridin-2-yl]methyl]triazol-4-yl]-1,3-benzothiazol-2-amine], the IC50 on recombinant human HDAC6 was 9 nM; at recombinant human HDAC1 it was > 1e+06 nM.

For the compound `Cn1c(N)nc2cc(-c3cn(Cc4ccc(-c5nnc(C(F)F)o5)cc4F)nn3)ccc21` [compound 378, 5-[1-[[4-[5-(difluoromethyl)-1,3,4-oxadiazol-2-yl]-2-fluorophenyl]methyl]triazol-4-yl]-1-methylbenzimidazol-2-amine], the figures for the IC50 at recombinant human HDAC6 and at recombinant human HDAC1 were 17 nM and 199000 nM, respectively.

Take `FC(F)c1nnc(-c2ccc(Cc3nc(-c4ccc(NC5=NCCN5)cc4)no3)cc2)o1` [compound 379, N-[4-[5-[[4-[5-(difluoromethyl)-1,3,4-oxadiazol-2-yl]phenyl]methyl]-1,2,4-oxadiazol-3-yl]phenyl]-4,5-dihydro-1H-imidazol-2-amine]: the values for the IC50 at recombinant human HDAC6 and on recombinant human HDAC1 were 17 nM and > 1e+06 nM, respectively.
